Among the data in patent publication US10647675B2 (priority 2015, dated 2020) are MIC values, retold here.

Converted amounts (≈) assume the structure as drawn. Some results are limits rather than exact numbers.

In assay [1] the test system is Trichophyton mentagrophytes SM-110. As to the kind of experiment: Antifungal activity evaluation test: minimum inhibitory concentration (MIC), broth dilution by reference to CLSI M38-A2. Type of assay: cell-based. The settings on record: SM110, read-out: MIC (T. menta.). An outline of the steps: (§1)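 Broth microdilution after CLSI M38-A2: 2-fold DMSO dilution series in MOPS-buffered RPMI 1640 pH 7.0, inoculum 2×10^3 cells/mL final. Incubated 35° C for 4 days; MIC (μg/mL) is lowest concentration giving visually ≥80% growth inhibition versus growth control.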
On the technique in general: In broth dilution the organism is exposed to a series of concentrations in liquid medium.

The subject of assay [2] is Trichophyton rubrum KD-1130. Described as above. Format: cell-based. The note with it: KD1130, read-out: MIC (T. rubrum). In a few lines:
as §1

Consider `FC(F)(F)c1ccc(Oc2ncccc2-c2cccc3c(Cl)cnn23)cn1` [I-51, 3-chloro-7-(2-{[6-(trifluoromethyl)pyridin-3-yl]oxy}pyridin-3-yl)-pyrazolo[1,5-a]pyridine], for which the minimum inhibitory concentration (MIC) in assay [1] and in assay [2] was at most 0.1 µg/mL throughout.
Turning to `Cc1nn2c(c1-c1cccnc1Oc1ccc(C(F)(F)F)cc1)OCC2` [I-232, 6-methyl-7-{2-[4-(trifluoromethyl)phenoxy]pyridin-3-yl}-2,3-dihydropyrazolo[1,5-b]oxazole], the MIC in assay [1] and in assay [2] was 0.2 to 0.78 µg/mL (≈ 0.554 to 2.16 µM) throughout.
As for `O=[N+]([O-])c1ccccc1-c1cccnc1Oc1ccc(C(F)(F)F)nc1` [I-15, 3-(2-nitrophenyl)-2-{[6-(trifluoromethyl)pyridin-3-yl]oxy}pyridine], the minimal inhibitory concentration (MIC) in assay [1] and in assay [2] was 0.2 to 0.78 µg/mL (≈ 0.554 to 2.16 µM) each time.
Consider `COc1ncccc1-c1cccnc1Oc1ccc2c(c1)CCCC2` [I-269, 2-methoxy-2′-[(5,6,7,8-tetrahydronaphthalen-2-yl)oxy]-3,3′-bipyridine], for which the minimal inhibitory concentration (MIC) in assay [1] and in assay [2] was at most 0.1 µg/mL throughout.
Regarding `CC(F)(F)c1ccc(Oc2ncccc2-c2cccnc2N2CCCC2)cn1` [I-105], the minimum inhibitory concentration (MIC) in assay [1] and in assay [2] was 1.56 to 6.25 µg/mL (≈ 4.08 to 16.3 µM) in each case.
`Fc1ccccc1-c1cccnc1Oc1ccc(C(F)(F)F)nc1` [I-3, 3-(2-fluorophenyl)-2-{[6-(trifluoromethyl)pyridin-3-yl]oxy}pyridine]: the MIC in assay [1] and in assay [2] was at most 0.1 µg/mL in each case.
For the compound `Cc1ccncc1-c1cccnc1Oc1ccc(C(F)(F)F)cc1` [I-206, 4′-methyl-2-[4-(trifluoromethyl)phenoxy]-3,3′-bipyridine], the minimum inhibitory concentration (MIC) in assay [1] and in assay [2] was at most 0.1 µg/mL each time.
As to `COc1ncccc1-c1cccnc1Oc1ccc(C)cc1` [I-459], the minimal inhibitory concentration (MIC) in assay [1] and in assay [2] was at most 0.1 µg/mL each time.
In the case of `C#Cc1ccc(Oc2ncccc2-c2cnccc2OC)cc1` [I-260, 2-(4-ethynylphenoxy)-4′-methoxy-3,3′-bipyridine], the MIC is 0.2 to 0.78 µg/mL (≈ 0.662 to 2.58 µM) in assay [1] and at most 0.1 µg/mL in assay [2].
Consider `COCC(F)(F)c1ccc(Oc2ncccc2-c2cc(F)ccc2OC)cn1` [I-162, 2-{[6-(1,1-difluoro-2-methoxyethyl)pyridin-3-yl]oxy}-3-(5-fluoro-2-methoxyphenyl)pyridine], for which the MIC in assay [1] and in assay [2] was at most 0.1 µg/mL throughout.
Regarding `O=Cc1ccccc1-c1cccnc1Oc1ccc(C(F)(F)F)nc1` [I-63, 2-(2-{[6-(trifluoromethyl)pyridin-3-yl]oxy}pyridin-3-yl)-benzaldehyde], the MIC in assay [1] and in assay [2] was 0.2 to 0.78 µg/mL (≈ 0.581 to 2.27 µM) throughout.
Consider `COc1ccncc1-c1cccnc1Oc1ccc(C(C)C)cc1` [I-255, 2-(4-isopropylphenoxy)-4′-methoxy-3,3′-bipyridine], for which the MIC in assay [1] and in assay [2] was at most 0.1 µg/mL throughout.
With `Fc1cccc(F)c1-c1cccnc1Oc1ccc(C(F)(F)F)nc1` [I-6, 3-(2,6-difluorophenyl)-2-{[6-(trifluoromethyl)pyridin-3-yl]oxy}pyridine], the MIC in assay [1] and in assay [2] was at most 0.1 µg/mL each time.
As to `COc1ncc(F)cc1-c1cccnc1Oc1ccc(C(F)(F)F)nc1` [I-32, 5-fluoro-2-methoxy-2′-{[6-(trifluoromethyl)pyridin-3-yl]oxy}-3,3′-bipyridine], the MIC was 0.2 to 0.78 µg/mL (≈ 0.548 to 2.14 µM) in assay [1] and at most 0.1 µg/mL in assay [2].
For the compound `FC(F)(F)c1ccc(Oc2ncccc2-c2cncc3nccnc23)cc1` [I-227, 8-{2-[4-(trifluoromethyl)phenoxy]pyridin-3-yl}pyrido[3,4-b]pyrazine], the MIC in assay [1] and in assay [2] was at most 0.1 µg/mL each time.
On to `CCCN(C)c1ncc(Oc2ncccc2-c2cccc3c2OCC3)cn1` [I-449], for which the minimum inhibitory concentration (MIC) in assay [1] and in assay [2] was at most 0.1 µg/mL each time.
For `COc1nc(C)ccc1-c1cccnc1Oc1ccc(C(F)(F)F)nc1` [I-29, 2-methoxy-6-methyl-2′-{[6-(trifluoromethyl)pyridin-3-yl]oxy}-3,3′-bipyridine], the MIC in assay [1] and in assay [2] was at most 0.1 µg/mL each time.

In general, MIC refers to the smallest concentration in the dilution series that meets the test's criterion for growth inhibition.
